Drawing on US20250064941A1, “SIGLEC LIGANDS, CONJUGATES, AND METHODS OF USE THEREOF” (Osprey Biopharmaceuticals, Inc., priority 2023, published 2025), this text covers Kd for twelve compounds.

Test [1] concerns the target T1, mouse Siglec-2-Fc-Avi (CD22) (Mus musculus, UniProt P35329).
T1 construct: made in house
T1 sequence (P35329 22-708 limits assumed): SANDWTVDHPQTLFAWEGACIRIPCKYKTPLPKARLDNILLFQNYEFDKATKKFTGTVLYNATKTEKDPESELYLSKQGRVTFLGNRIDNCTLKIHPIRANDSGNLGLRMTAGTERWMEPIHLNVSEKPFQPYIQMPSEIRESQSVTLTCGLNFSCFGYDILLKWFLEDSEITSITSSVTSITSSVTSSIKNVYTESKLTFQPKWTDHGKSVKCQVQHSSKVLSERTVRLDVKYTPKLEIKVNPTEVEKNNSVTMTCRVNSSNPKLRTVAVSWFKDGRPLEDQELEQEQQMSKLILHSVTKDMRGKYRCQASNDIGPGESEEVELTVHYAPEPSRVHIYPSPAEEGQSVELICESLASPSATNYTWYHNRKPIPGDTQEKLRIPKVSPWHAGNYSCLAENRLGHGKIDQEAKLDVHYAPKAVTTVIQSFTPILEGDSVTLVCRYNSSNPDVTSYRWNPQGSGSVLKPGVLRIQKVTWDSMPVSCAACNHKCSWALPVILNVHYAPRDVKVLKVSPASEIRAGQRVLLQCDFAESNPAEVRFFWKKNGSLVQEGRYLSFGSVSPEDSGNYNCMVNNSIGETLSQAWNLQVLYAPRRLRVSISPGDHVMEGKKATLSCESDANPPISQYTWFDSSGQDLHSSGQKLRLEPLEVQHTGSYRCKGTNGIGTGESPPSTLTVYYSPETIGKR
The test can be described thus: SPR binding affinity to mouse CD22. Conditions: steady-state analysis. The method, boiled down: (§1)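 Using a Biacore 8K, compounds were tested against biotinylated CD22 captured after sialidase treatment. The running buffer held 1% DMSO, corrected with a 0.5–2% DMSO series. Affinity was derived by steady-state analysis.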

For test [2], the target named is T2, human Siglec-2/CD22 protein (Homo sapiens, UniProt P20273).
T2 construct: purchased Acro Biosystems SI2-H82E3
T2 sequence (P20273 20-847): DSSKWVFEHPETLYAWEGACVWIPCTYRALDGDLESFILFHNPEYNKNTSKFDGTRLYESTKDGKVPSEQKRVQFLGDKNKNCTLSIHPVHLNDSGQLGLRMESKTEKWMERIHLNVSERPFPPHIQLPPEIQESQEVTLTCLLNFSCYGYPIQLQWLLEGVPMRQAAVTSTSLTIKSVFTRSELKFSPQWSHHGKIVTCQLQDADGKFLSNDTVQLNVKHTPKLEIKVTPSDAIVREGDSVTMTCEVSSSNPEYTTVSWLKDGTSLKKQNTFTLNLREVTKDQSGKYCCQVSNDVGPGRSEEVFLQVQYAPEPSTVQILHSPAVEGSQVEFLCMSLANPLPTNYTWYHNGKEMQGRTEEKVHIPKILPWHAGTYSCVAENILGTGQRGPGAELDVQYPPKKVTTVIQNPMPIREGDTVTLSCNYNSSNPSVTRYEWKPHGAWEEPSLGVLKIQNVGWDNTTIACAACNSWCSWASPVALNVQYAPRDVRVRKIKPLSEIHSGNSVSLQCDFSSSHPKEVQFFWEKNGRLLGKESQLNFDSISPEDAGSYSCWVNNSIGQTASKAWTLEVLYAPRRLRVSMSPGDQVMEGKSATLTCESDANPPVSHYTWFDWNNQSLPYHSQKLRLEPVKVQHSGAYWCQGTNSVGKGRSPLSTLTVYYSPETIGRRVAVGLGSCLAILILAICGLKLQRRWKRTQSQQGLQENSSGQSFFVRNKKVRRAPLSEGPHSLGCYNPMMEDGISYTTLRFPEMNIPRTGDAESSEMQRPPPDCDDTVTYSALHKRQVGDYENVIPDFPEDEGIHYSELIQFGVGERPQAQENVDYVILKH
The test can be described thus: SPR binding affinity to human CD22. Conditions: steady-state analysis. The method, boiled down:
as §1
(In SPR one partner is held on a chip, and binding of the other changes the refractive index at the surface.)

For test [3], the target named is cynomolgus Siglec-2/CD22 (Macaca fascicularis, UniProt A0A2K5WCZ6). The test can be described thus: biochemical. The format is binding. The conditions noted are these: SPR, steady-state analysis; read-out: Affinity cyno CD22. In short, it runs like this:
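SPR with desialylated (SialoExo, 4 h, 37° C.) cynomolgus CD22 amine-coupled to a CM5 chip. Running buffer 10 mM HEPES, 150 mM NaCl, 0.05% Tween-20, pH 7.5, 1% DMSO, with solvent correction; 120 s dissociation. Affinities from steady-state analysis.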

pKd: −log10 of the molar value. A value given as a limit tells only on which side of the number the result lay.

Sequence of cynomolgus Siglec-2/CD22 (A0A2K5WCZ6 entry or part of it): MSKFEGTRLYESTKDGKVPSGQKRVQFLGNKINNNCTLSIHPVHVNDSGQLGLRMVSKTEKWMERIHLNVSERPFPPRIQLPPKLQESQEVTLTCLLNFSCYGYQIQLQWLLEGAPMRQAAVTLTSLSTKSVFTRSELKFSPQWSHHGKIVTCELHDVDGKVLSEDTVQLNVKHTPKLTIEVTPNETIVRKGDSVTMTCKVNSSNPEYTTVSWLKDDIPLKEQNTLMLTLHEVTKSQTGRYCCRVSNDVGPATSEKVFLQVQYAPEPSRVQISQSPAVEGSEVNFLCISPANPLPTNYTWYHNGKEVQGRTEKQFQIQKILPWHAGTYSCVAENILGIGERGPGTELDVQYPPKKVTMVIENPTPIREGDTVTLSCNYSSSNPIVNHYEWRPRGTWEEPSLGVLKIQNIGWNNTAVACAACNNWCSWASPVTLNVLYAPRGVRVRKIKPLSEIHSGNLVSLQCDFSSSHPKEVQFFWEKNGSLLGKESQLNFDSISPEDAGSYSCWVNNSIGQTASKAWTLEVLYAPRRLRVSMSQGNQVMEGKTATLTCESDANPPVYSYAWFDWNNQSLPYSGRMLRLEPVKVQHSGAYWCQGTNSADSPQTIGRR

`C#CCOCCOCCO[C@]1(C(=O)O)C[C@H](O)[C@@H](NC(=O)CO)[C@H]([C@H](O)[C@H](O)CNC(=O)Cc2ccc(O)cc2)O1` [Compound 153, (2R,4S,5R,6R)-6-((1R,2R)-1,2-dihydroxy-3-(2-(4-hydroxyphenyl)acetamido)propyl)-4-hydroxy-5-(2-hydroxyacetamido)-2-(2-(2-(prop-2-yn-1-yloxy)ethoxy)ethoxy)tetrahydro-2H-pyran-2-carboxylic acid]: the pKd in test [1] is above 6.00; in test [2], 5.00 to 6.00; in test [3], 5.00 to 6.00.
Take `O=C(O)CCOCCOCCOCCOCCNc1c(NCCCCCCO[C@]2(C(=O)O)C[C@H](O)[C@@H](NC(=O)CO)[C@H]([C@H](O)[C@H](O)CNC(=O)Cc3ccc(Cl)cc3)O2)c(=O)c1=O` [Compound 154, (2R,4S,5R,6R)-2-((6-((2-((14-carboxy-3,6,9,12-tetraoxa-tetradecyl)amino)-3,4-dioxocyclobut-1-en-1-yl)amino)hexyl)oxy)-6-((1R,2R)-3-(2-(4-chlorophenyl)acetamido)-1,2-dihydroxypropyl)-4-hydroxy-5-(2-hydroxyacetamido) tetrahydro-2H-pyran-2-carboxylic acid]: the pKd in test [1], in test [2] and in test [3] was above 6.00 in each case.
Take `C#CCOCCCCCCO[C@]1(C(=O)O)C[C@H](O)[C@@H](NC(=O)CO)[C@H]([C@H](O)[C@H](O)CNC(=O)Cc2cccc(OC(F)(F)F)c2)O1` [Compound 155, (2R,4S,5R,6R)-6-((1R,2R)-1,2-dihydroxy-3-(2-(3-(trifluoromethoxy)phenyl)acetamido)propyl)-4-hydroxy-5-(2-hydroxyacetamido)-2-((6-(prop-2-yn-1-yloxy)hexyl)oxy)tetrahydro-2H-pyran-2-carboxylic acid]: the pKd in test [1] was 5.00 to 6.00; in test [2], above 6.00; in test [3] it was above 6.00.
Take `C#CCOCCCCCCO[C@]1(C(=O)O)C[C@H](O)[C@@H](NC(=O)CO)[C@H]([C@H](O)[C@H](O)CNC(=O)Cc2ccc(OC(F)(F)F)cc2)O1` [Compound 156, (2R,4S,5R,6R)-6-((1R,2R)-1,2-dihydroxy-3-(2-(4-(trifluoromethoxy)phenyl)acetamido)propyl)-4-hydroxy-5-(2-hydroxyacetamido)-2-((6-(prop-2-yn-1-yloxy)hexyl)oxy)tetrahydro-2H-pyran-2-carboxylic acid]: the results for the pKd in test [1], in test [2] and in test [3] were 5.00 to 6.00, above 6.00 and above 6.00, respectively.
In the case of `C#CCOCCCCCCO[C@]1(C(=O)O)C[C@H](O)[C@@H](NC(=O)CO)[C@H]([C@H](O)[C@H](O)CNC(=O)Cc2ccc(C(F)F)cc2)O1` [Compound 157, (2R,4S,5R,6R)-6-((1R,2R)-3-(2-(4-(difluoromethyl)phenyl)acetamido)-1,2-dihydroxypropyl)-4-hydroxy-5-(2-hydroxyacetamido)-2-((6-(prop-2-yn-1-yloxy)hexyl)oxy)tetrahydro-2H-pyran-2-carboxylic acid], the pKd in test [1], in test [2] and in test [3] was above 6.00 throughout.
On to `C#CCOCCCCCCO[C@]1(C(=O)O)C[C@H](O)[C@@H](NC(=O)CO)[C@H]([C@H](O)[C@H](O)CNC(=O)Cc2ccc(C(F)(F)F)cc2)O1` [Compound 158, (2R,4S,5R,6R)-6-((1R,2R)-1,2-dihydroxy-3-(2-(4-(trifluoromethyl)phenyl)acetamido)propyl)-4-hydroxy-5-(2-hydroxyacetamido)-2-((6-(prop-2-yn-1-yloxy)hexyl)oxy)tetrahydro-2H-pyran-2-carboxylic acid], for which the pKd in test [1] is 5.00 to 6.00; in test [2], above 6.00; in test [3] it was 5.00 to 6.00.
Consider `C#CCOCCCCCCO[C@]1(C(=O)O)C[C@H](O)[C@@H](NC(=O)CO)[C@H]([C@H](O)[C@H](O)CNC(=O)Cc2ccc(C(C)(C)C)cc2)O1` [Compound 160, (2R,4S,5R,6R)-6-((1R,2R)-3-(2-(4-(tert-butyl)phenyl)acetamido)-1,2-dihydroxypropyl)-4-hydroxy-5-(2-hydroxyacetamido)-2-((6-(prop-2-yn-1-yloxy)hexyl)oxy)tetrahydro-2H-pyran-2-carboxylic acid], for which the pKd in test [1] was 5.00 to 6.00; in test [2] it was above 6.00; in test [3], above 6.00.
Turning to `C#CCOCCCCCCO[C@]1(C(=O)O)C[C@H](O)[C@@H](NC(=O)CO)[C@H]([C@H](O)[C@H](O)CNC(=O)Cc2ccc(C3CC3)cc2)O1` [Compound 161, (2R,4S,5R,6R)-6-((1R,2R)-3-(2-(4-cyclopropylphenyl)acetamido)-1,2-dihydroxypropyl)-4-hydroxy-5-(2-hydroxyacetamido)-2-((6-(prop-2-yn-1-yloxy)hexyl)oxy)tetrahydro-2H-pyran-2-carboxylic acid], the pKd in test [1], in test [2] and in test [3] was above 6.00 each time.
For the compound `C#CCOCCCCCCO[C@]1(C(=O)O)C[C@H](O)[C@@H](NC(=O)CO)[C@H]([C@H](O)[C@H](O)CNC(=O)Cc2ccc(C#N)cc2)O1` [Compound 162, (2R,4S,5R,6R)-6-((1R,2R)-3-(2-(4-cyanophenyl)acetamido)-1,2-dihydroxypropyl)-4-hydroxy-5-(2-hydroxyacetamido)-2-((6-(prop-2-yn-1-yloxy)hexyl)oxy)tetrahydro-2H-pyran-2-carboxylic acid], the pKd in test [1] is 5.00 to 6.00; in test [2] it was 5.00 to 6.00; in test [3], above 6.00.
In the case of `C#CCCOc1ccc(CO[C@]2(C(=O)O)C[C@H](O)[C@@H](NC(=O)CO)[C@H]([C@H](O)[C@H](O)CNC(=O)Cc3ccccc3NC(C)=O)O2)cc1` [Compound 163, (2R,4S,5R,6R)-6-((1R,2R)-3-(2-(2-acetamidophenyl)acetamido)-1,2-dihydroxypropyl)-2-((4-(but-3-yn-1-yloxy)benzyl)oxy)-4-hydroxy-5-(2-hydroxyacetamido)tetrahydro-2H-pyran-2-carboxylic acid], the pKd in test [1], in test [2] and in test [3] was 5.00 to 6.00 in each case.
On to `C#CCCOc1ccc(CO[C@]2(C(=O)O)C[C@H](O)[C@@H](NC(=O)CO)[C@H]([C@H](O)[C@H](O)CNC(=O)Cc3cccc(NC(C)=O)c3)O2)cc1` [Compound 164, (2R,4S,5R,6R)-6-((1R,2R)-3-(2-(3-acetamidophenyl)acetamido)-1,2-dihydroxypropyl)-2-((4-(but-3-yn-1-yloxy)benzyl)oxy)-4-hydroxy-5-(2-hydroxyacetamido)tetrahydro-2H-pyran-2-carboxylic acid], for which the pKd in test [1], in test [2] and in test [3] was 5.00 to 6.00 each time.
With `C#CCOc1ccc(CO[C@]2(C(=O)O)C[C@H](O)[C@@H](NC(=O)CO)[C@H]([C@H](O)[C@H](O)CNC(=O)Cc3ccccc3F)O2)cc1` [Compound 165, (2R,4S,5R,6R)-6-((1R,2R)-3-(2-(2-fluorophenyl)acetamido)-1,2-dihydroxypropyl)-4-hydroxy-5-(2-hydroxyacetamido)-2-((4-(prop-2-yn-1-yloxy)benzyl)oxy)tetrahydro-2H-pyran-2-carboxylic acid], the pKd is 5.00 to 6.00 in test [1], above 6.00 in test [2] and 5.00 to 6.00 in test [3].
